From patent publication US20230257372A1 (CHONG KUN DANG PHARMACEUTICAL CORP., priority 2020, published 2023)
Like-named read-outs stand apart in the source and are kept apart here.

Experiments:
[1] = tested on: hippocampal neurons from a Sprague-Dawley (SD) rat fetus; assay: Effect of HDAC6-specific inhibitor on axonal transport of mitochondria in amyloid-beta treated neurons; type: cell-based; conditions: transport velocity of mitochondria in neuronal axon after normalization; vehicle = 100%, amyloid beta treatment group = 0%; compound treatment for three hours
How it was run: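 Rat E17-18 hippocampal neurons exposed to amyloid-beta fragments […]; after 24 h (day 8 in vitro) compound added for 3 h, mitochondria stained with MitoTracker Red CMXRos. Confocal imaging every 1 s for 1 min gave per-mitochondrion velocity, normalized vehicle = 100%, amyloid-beta = 0%.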

[2] = molecular target: T1, human recombinant HDAC6 (Homo sapiens, UniProt Q9UBN7); assay: HDAC6 enzyme activity inhibition (HDAC Fluorimetric Drug Discovery Kit); type: biochemical
T1 construct: purchased Calbiochem Inc. 382180
T1 sequence (Q9UBN7 1-1215): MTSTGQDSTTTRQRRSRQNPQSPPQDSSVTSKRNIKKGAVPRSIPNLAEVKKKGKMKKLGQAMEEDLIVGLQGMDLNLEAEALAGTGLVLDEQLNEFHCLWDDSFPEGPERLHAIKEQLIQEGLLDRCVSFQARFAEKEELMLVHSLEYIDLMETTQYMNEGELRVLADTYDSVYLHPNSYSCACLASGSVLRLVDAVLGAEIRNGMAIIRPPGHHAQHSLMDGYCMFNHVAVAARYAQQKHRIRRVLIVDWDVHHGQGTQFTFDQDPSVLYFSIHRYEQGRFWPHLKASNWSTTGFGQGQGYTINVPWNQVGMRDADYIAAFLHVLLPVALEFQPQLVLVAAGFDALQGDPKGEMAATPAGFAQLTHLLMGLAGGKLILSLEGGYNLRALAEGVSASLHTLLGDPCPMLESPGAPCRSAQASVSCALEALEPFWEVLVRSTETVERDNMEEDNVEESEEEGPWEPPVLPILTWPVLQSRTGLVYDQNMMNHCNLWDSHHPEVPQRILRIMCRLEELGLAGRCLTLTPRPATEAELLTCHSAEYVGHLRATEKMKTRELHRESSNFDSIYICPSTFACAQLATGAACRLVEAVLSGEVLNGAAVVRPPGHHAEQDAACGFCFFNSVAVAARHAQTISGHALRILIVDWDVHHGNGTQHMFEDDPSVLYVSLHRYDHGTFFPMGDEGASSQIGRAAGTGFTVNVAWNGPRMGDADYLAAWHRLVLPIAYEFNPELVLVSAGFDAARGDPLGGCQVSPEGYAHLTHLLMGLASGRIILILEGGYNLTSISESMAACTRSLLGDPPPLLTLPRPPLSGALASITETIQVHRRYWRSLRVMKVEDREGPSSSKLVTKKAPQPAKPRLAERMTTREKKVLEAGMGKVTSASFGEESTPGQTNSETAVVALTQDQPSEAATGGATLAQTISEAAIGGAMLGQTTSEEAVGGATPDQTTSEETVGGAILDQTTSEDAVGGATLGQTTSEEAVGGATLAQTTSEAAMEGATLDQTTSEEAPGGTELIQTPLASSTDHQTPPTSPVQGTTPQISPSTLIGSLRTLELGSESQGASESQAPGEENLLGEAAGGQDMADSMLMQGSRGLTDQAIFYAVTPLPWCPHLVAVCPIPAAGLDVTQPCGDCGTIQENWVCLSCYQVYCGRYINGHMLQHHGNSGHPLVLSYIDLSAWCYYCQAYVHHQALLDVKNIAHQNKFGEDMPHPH
How it was run: (§1)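 Five-fold compound dilutions incubated with […] recombinant enzyme and 10 μM fluorogenic Fluor de Lys substrate, 60 min at 30° C. Fluor de Lys Developer II then added for 30 min to generate the fluorescent read-out.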

[3] = molecular target: T2, human recombinant HDAC1 (Homo sapiens, UniProt Q13547); assay: HDAC1 enzyme activity inhibition (HDAC Fluorimetric Drug Discovery Kit); type: biochemical; conditions: read-out: HDAC1
T2 construct: purchased Enzo Life Science, Inc. BML-SE456
How it was run: as §1

[4] = human recombinant HDAC6, IC50 calculated with GraphPad Prism
[5] = human recombinant HDAC1, IC50 calculated with GraphPad Prism
[6] = human recombinant HDAC6, same protocol as HDAC1
[7] = human recombinant HDAC1, Fluor de Lys substrate, 30° C. 60 minutes

T2 sequence (Q13547 whole entry): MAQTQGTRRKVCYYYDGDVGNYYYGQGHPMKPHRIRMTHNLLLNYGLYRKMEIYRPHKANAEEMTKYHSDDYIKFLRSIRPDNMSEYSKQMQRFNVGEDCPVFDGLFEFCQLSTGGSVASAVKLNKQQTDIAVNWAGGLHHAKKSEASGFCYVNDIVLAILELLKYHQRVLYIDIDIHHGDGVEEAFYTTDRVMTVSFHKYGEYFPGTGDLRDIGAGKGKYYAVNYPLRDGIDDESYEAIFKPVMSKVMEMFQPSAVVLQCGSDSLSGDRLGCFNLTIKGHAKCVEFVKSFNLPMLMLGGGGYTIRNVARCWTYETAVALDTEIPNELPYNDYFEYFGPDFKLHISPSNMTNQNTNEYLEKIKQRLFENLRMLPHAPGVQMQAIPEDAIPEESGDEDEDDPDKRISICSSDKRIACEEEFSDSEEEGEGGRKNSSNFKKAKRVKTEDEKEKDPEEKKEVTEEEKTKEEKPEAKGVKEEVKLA

FC(F)c1nnc(-c2ccc(Cn3nnc(-c4cccs4)n3)nc2)o1 [Compound 4232, 2-(difluoromethyl)-5-(6-((5-(thiophen-2-yl)-2H-tetrazol-2-yl)methyl)pyridin-3-yl)-1,3,4-oxadiazole]
Velocity distribution (%) [1]: ** (**, 50%˜100%)
HDAC6 selectivity (fold) ([2]; HDAC1 IC50 / HDAC6 IC50): 2232 fold
IC50 [2, 4]: 22.4 nM
IC50 [3, 5]: > 50000 nM

FC(F)c1nnc(-c2ccc(Cn3cc(-c4ccc5cn[nH]c5c4)nn3)cc2)o1 [Compound 4341, 2-(4-((4-(1H-indazol-6-yl)-1H-1,2,3-triazol-1-yl)methyl)phenyl)-5-(difluoromethyl)-1,3,4-oxadiazole]
Velocity distribution (%) [1]: ** (**, 50%˜100%)
HDAC6 selectivity (fold) ([2]; HDAC1 IC50 / HDAC6 IC50): 1222 fold
IC50 [2, 4]: 40.9 nM
IC50 [3, 5]: > 50000 nM

CN1CCC(Nc2cccc(-c3cn(Cc4ccc(-c5nnc(C(F)F)o5)cc4F)nn3)c2F)CC1 [Compound 4431, N-(3-(1-(4-(5-(difluoromethyl)-1,3,4-oxadiazol-2-yl)-2-fluorobenzyl)-1H-1,2,3-triazol-4-yl)-2-fluorophenyl)-1-methylpiperidin-4-amine]
Velocity distribution (%) [1]: *** (***, >100%)
HDAC6 selectivity (fold) ([2]; HDAC1 IC50 / HDAC6 IC50): 2631 fold
IC50 [2, 4]: 19 nM
IC50 [3, 5]: > 50000 nM

CN(C)Cc1ccc(-c2cn(Cc3ccc(-c4nnc(C(F)F)o4)cc3F)nn2)cn1 [Compound 18176, 1-(5-(1-(4-(5-(difluoromethyl)-1,3,4-oxadiazol-2-yl)-2-fluorobenzyl)-1H-1,2,3-triazol-4-yl)pyridin-2-yl)-N,N-dimethylmethanamine]
Velocity distribution (%) [1]: ** (**, 50%˜100%)
HDAC6 selectivity (fold) ([2]; HDAC6 over HDAC1): 705 fold
IC50 [2, 6]: 70.9 nM
IC50 [3, 7]: > 50000 nM

Fc1cc(-c2nnc(C(F)F)o2)cnc1Cn1cc(-c2ccc(CN3CCC3)s2)nn1 [Compound 18309, 2-(6-((4-(5-(azetidin-1-ylmethyl)thiophen-2-yl)-1H-1,2,3-triazol-1-yl)methyl)-5-fluoropyridin-3-yl)-5-(difluoromethyl)-1,3,4-oxadiazole]
Velocity distribution (%) [1]: ** (**, 50%˜100%)
HDAC6 selectivity (fold) ([2]; HDAC6 over HDAC1): 1160 fold
IC50 [2, 6]: 43.1 nM
IC50 [3, 7]: > 50000 nM

CN1CCC(c2cccc(-c3cn(Cc4ccc(-c5nnc(C(F)F)o5)cn4)nn3)c2)CC1 [Compound 4010, 2-(difluoromethyl)-5-(6-((4-(3-(1-methylpiperidin-4-yl)phenyl)-1H-1,2,3-triazol-1-yl)methyl)pyridin-3-yl)-1,3,4-oxadiazole]
Velocity distribution (%) [1]: *** (***, >100%)
HDAC6 selectivity (fold) ([2]; HDAC1 IC50 / HDAC6 IC50): 2369 fold
IC50 [2, 4]: 21.1 nM
IC50 [3, 5]: > 50000 nM

CCOC(=O)Nc1cccc(-c2cn(Cc3ccc(-c4nnc(C(F)F)o4)cn3)nn2)c1 [Compound 3826]
Velocity distribution (%) [1]: * (*, 0%˜50%)
HDAC6 selectivity (fold) ([2]; HDAC1 IC50 / HDAC6 IC50): 4132 fold
IC50 [2, 4]: 12.1 nM
IC50 [3, 5]: > 50000 nM

Fc1cccc(-c2cn(Cc3ccc(-c4nnc(C(F)F)o4)cn3)nn2)c1 [Compound 3854, 2-(difluoromethyl)-5-(6-((4-(3-fluorophenyl)-1H-1,2,3-triazol-1-yl)methyl)pyridin-3-yl)-1,3,4-oxadiazole]
Velocity distribution (%) [1]: *** (***, >100%)
HDAC6 selectivity (fold) ([2]; HDAC1 IC50 / HDAC6 IC50): 1259 fold
IC50 [2, 4]: 39.7 nM
IC50 [3, 5]: > 50000 nM

CC(=O)N1CCN(c2cccc(-c3cn(Cc4ccc(-c5nnc(C(F)F)o5)cn4)nn3)c2)CC1 [Compound 3990, 1-(4-(3-(1-((5-(5-(difluoromethyl)-1,3,4-oxadiazol-2-yl)pyridin-2-yl)methyl)-1H-1,2,3-triazol-4-yl)phenyl)piperazin-1-yl)ethan-1-one]
Velocity distribution (%) [1]: ** (**, 50%˜100%)
HDAC6 selectivity (fold) ([2]; HDAC1 IC50 / HDAC6 IC50): 2631 fold
IC50 [2, 4]: 19 nM
IC50 [3, 5]: > 50000 nM

Fc1cc(-c2nnc(C(F)F)o2)ccc1Cn1cc(-c2ccc(CN3CCC3)cn2)nn1 [Compound 17532, 2-(4-((4-(5-(azetidin-1-yl-methyl)pyridin-2-yl)-1H-1,2,3-triazol-1-yl)methyl)-3-fluorophenyl)5-(difluoromethyl)-1,3,4-oxadiazole]
Velocity distribution (%) [1]: *** (***, >100%)
HDAC6 selectivity (fold) ([2]; HDAC6 over HDAC1): 2100 fold
IC50 [2, 6]: 23.8 nM
IC50 [3, 7]: > 50000 nM

Fc1cc(-c2nnc(C(F)F)o2)cnc1Cn1cc(-c2ccc(CN3CCC3)cc2)nn1 [Compound 18306, 2-(6-((4-(4-(azetidin-1l-ylmethyl)phenyl)-1H-1,2,3-triazol-1-yl)methyl)-5-fluoropyridin-3-yl)-5-(difluoromethyl)-1,3,4-oxadiazole]
Velocity distribution (%) [1]: *** (***, >100%)
HDAC6 selectivity (fold) ([2]; HDAC6 over HDAC1): 1184 fold
IC50 [2, 6]: 42.2 nM
IC50 [3, 7]: > 50000 nM

Fc1cc(-c2nnc(C(F)F)o2)cnc1Cn1cc(-c2ccccn2)nn1 [Compound 17983, 2-(difluoromethyl)-5-(5-fluoro-6-((4-(pyridin-2-yl)-1H-1,2,3-triazol-1-yl)methyl)pyridin-3-yl)-1,3,4-oxadiazole]
Velocity distribution (%) [1]: *** (***, >100%)
HDAC6 selectivity (fold) ([2]; HDAC6 over HDAC1): 633 fold
IC50 [2, 6]: 78.9 nM
IC50 [3, 7]: > 50000 nM

CC(C)N1CCC(Nc2cccc(-c3cn(Cc4ccc(-c5nnc(C(F)F)o5)cc4F)nn3)c2F)CC1 [Compound 4432, N-(3-(1-(4-(5-(difluoromethyl)-1,3,4-oxadiazol-2-yl)-2-fluorobenzyl)-1H-1,2,3-triazol-4-yl)-2-fluorophenyl)-1-isopropylpiperidin-4-amine]
Velocity distribution (%) [1]: *** (***, >100%)
HDAC6 selectivity (fold) ([2]; HDAC1 IC50 / HDAC6 IC50): 2427 fold
IC50 [2, 4]: 20.6 nM
IC50 [3, 5]: > 50000 nM

FC(F)c1nnc(-c2ccc(Cn3cc(-c4ccc5[nH]cc(CN6CCOCC6)c5c4)nn3)nc2)o1 [Compound 4187, 4-((5-(1-((5-(5-(difluoromethyl)-1,3,4-oxadiazol-2-yl)pyridin-2-yl)methyl)-1H-1,2,3-triazol-4-yl)-1H-indol-3-yl)methyl)morpholine]
Velocity distribution (%) [1]: * (*, 0%˜50%)
HDAC6 selectivity (fold) ([2]; HDAC1 IC50 / HDAC6 IC50): 5617 fold
IC50 [2, 4]: 8.9 nM
IC50 [3, 5]: > 50000 nM

Fc1cc(-c2nnc(C(F)F)o2)ccc1Cn1cc(-c2ccc3cn[nH]c3c2)nn1 [Compound 4342, 2-(4-((4-(1H-indazol-6-yl)-1H-1,2,3-triazol-1-yl)methyl)-3-fluorophenyl)-5-(difluoromethyl)-1,3,4-oxadiazole]
Velocity distribution (%) [1]: * (*, 0%˜50%)
HDAC6 selectivity (fold) ([2]; HDAC1 IC50 / HDAC6 IC50): 1453 fold
IC50 [2, 4]: 34.4 nM
IC50 [3, 5]: > 50000 nM

Cc1cccc(-c2cn(Cc3ccc(-c4nnc(C(F)F)o4)cn3)nn2)c1 [Compound 3856, 2-(difluoromethyl)-5-(6-((4-(m-tolyl)-1H-1,2,3-triazol-1-yl)methyl)pyridin-3-yl)-1,3,4-oxadiazole]
Velocity distribution (%) [1]: *** (***, >100%)
HDAC6 selectivity (fold) ([2]; HDAC1 IC50 / HDAC6 IC50): 1506 fold
IC50 [2, 4]: 33.2 nM
IC50 [3, 5]: > 50000 nM

CC(C)N1CCN(c2cccc(-c3cn(Cc4ccc(-c5nnc(C(F)F)o5)cc4F)nn3)n2)CC1 [Compound 17363, 2-(difluoromethyl)-5-(3-fluoro-4-((4-(6-(4-isopropylpiperazin-1-yl)pyridin-2-yl)-1H-1,2,3-triazol-1-yl)methyl)phenyl)-1,3,4-oxadiazole]
Velocity distribution (%) [1]: ** (**, 50%˜100%)
HDAC6 selectivity (fold) ([2]; HDAC6 over HDAC1): 2212 fold
IC50 [2, 6]: 22.6 nM
IC50 [3, 7]: > 50000 nM

CC(C)N1CC(N2CCC(c3cccc(-c4cn(Cc5ccc(-c6nnc(C(F)F)o6)cc5F)nn4)c3)CC2)C1 [Compound 4296]
Velocity distribution (%) [1]: ** (**, 50%˜100%)
HDAC6 selectivity (fold) ([2]; HDAC1 IC50 / HDAC6 IC50): 1547 fold
IC50 [2, 4]: 32.3 nM
IC50 [3, 5]: > 50000 nM
